The values below are quoted from earlier work in patent US20100303937A1, “NOVEL COMPOSITION TO INCREASE TESTOSTERONE LEVELS” (priority 2009, published 2010).

The conditions of the data set: humans; prior art U.S. Pat. No. 5,880,117.

Regarding `C[C@]12CC[C@H]3[C@@H](CCC4=C[C@@H](O)CC[C@@]43C)[C@@H]1CC[C@@H]2O` [4-androstene-3β, 17β-diol], the “time within which concentration peaks after administration” value was ≤ 90 min.
